Source: patent US20230278972A1, “SUBSTITUTED HALOALKYL SULFONANILIDE HERBICIDES” (FMC Corporation, priority 2020, published 2023)

How the values were obtained:
Type in all cases: in vivo
[1] = system: Ryegrass, Italian (Italian ryegrass, Lolium multiflorum); test: Test A preemergence, Ryegrass, Italian; conditions: Preemergence; for Ryegrass, Italian plant response rating: 125 g ai/ha, visual injury on 0 to 100 scale (0 no effect, 100 complete control), approximately 10 days; for Plant response rating, Ryegrass, Italian: 0 to 100 scale (0 no effect, 100 complete control)
Outline: (§1)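 Postemergence ratings come from foliar sprays onto one- to two-leaf plants of 2 to 10 cm grown in loam/sand; preemergence ratings come from a directed spray onto the soil of newly seeded pots. Formulation was a surfactant-containing non-phytotoxic solvent blend.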

[2] = system: Ryegrass, Italian (Italian ryegrass, Lolium multiflorum); test: Test A postemergence, Ryegrass, Italian; conditions: Postemergence, 0 to 100 scale (0 no effect, 100 complete control); for Ryegrass, Italian plant response rating: 500 g ai/ha, visual injury vs untreated controls after approx. 10 days
Outline: as §1

[3] = system: barnyardgrass (Echinochloa crus-galli); test: Test A preemergence, barnyardgrass; conditions: Preemergence; for Barnyardgrass plant response rating: 125 g ai/ha, visual injury on 0 to 100 scale (0 no effect, 100 complete control), approximately 10 days; for Plant response rating, Barnyardgrass: 0 to 100 scale (0 no effect, 100 complete control)
Outline: as §1

corn (Zea mays) = test: Test A postemergence, corn; conditions: Postemergence, 0 to 100 scale (0 no effect, 100 complete control); for Corn plant response rating: 500 g ai/ha, visual injury vs untreated controls after approx. 10 days
Outline: as §1

[4] = system: ragweed (common ragweed, Ambrosia artemisiifolia); test: Test A postemergence, ragweed; conditions: Postemergence, 0 to 100 scale (0 no effect, 100 complete control); for Ragweed plant response rating: 500 g ai/ha, visual injury vs untreated controls after approx. 10 days
Outline: as §1

[5] = system: blackgrass (Alopecurus myosuroides); test: Test A postemergence, blackgrass; conditions: Postemergence, 0 to 100 scale (0 no effect, 100 complete control); for Blackgrass plant response rating: 500 g ai/ha, visual injury vs untreated controls after approx. 10 days
Outline: as §1

[6] = system: wheat (Triticum aestivum); test: Test A postemergence, wheat; conditions: Postemergence, 0 to 100 scale (0 no effect, 100 complete control); for Wheat plant response rating: 500 g ai/ha, visual injury vs untreated controls after approx. 10 days
Outline: (§2)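 Barnyardgrass, wheat and galium were treated postemergence at the one- to two-leaf stage (2 to 10 cm) with chemicals formulated in non-phytotoxic solvent plus surfactant, grown in loam soil–sand pots. Pigweed was sown in the same blend and given a preemergence directed soil spray.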

[7] = system: pigweed (Amaranthus retroflexus); test: Test A postemergence, pigweed; conditions: Postemergence, 0 to 100 scale (0 no effect, 100 complete control); for Pigweed plant response rating: 500 g ai/ha, visual injury vs untreated controls after approx. 10 days
Outline: as §1

[8] = system: Foxtail, Giant (giant foxtail, Setaria faberi); test: Test A postemergence, Foxtail, Giant; conditions: Postemergence, 0 to 100 scale (0 no effect, 100 complete control); for Foxtail, Giant plant response rating: 500 g ai/ha, visual injury vs untreated controls after approx. 10 days
Outline: as §1

kochia (Bassia scoparia) [9] = test: Test A postemergence, kochia; conditions: Postemergence, 0 to 100 scale (0 no effect, 100 complete control); for Kochia plant response rating: 500 g ai/ha, visual injury vs untreated controls after approx. 10 days
Outline: as §1

[10] = system: galium (catchweed bedstraw, Galium aparine); test: Test A postemergence, galium; conditions: Postemergence, 0 to 100 scale (0 no effect, 100 complete control); for Galium plant response rating: 500 g ai/ha, visual injury vs untreated controls after approx. 10 days
Outline: as §2

[11] = system: barnyardgrass (Echinochloa crus-galli); test: Test A postemergence, barnyardgrass; conditions: Postemergence, 0 to 100 scale (0 no effect, 100 complete control); for Barnyardgrass plant response rating: 500 g ai/ha, visual injury vs untreated controls after approx. 10 days
Outline: as §2

[12] = system: Foxtail, Giant (giant foxtail, Setaria faberi); test: Test A preemergence, Foxtail, Giant; conditions: Preemergence; for Foxtail, Giant plant response rating: 125 g ai/ha, visual injury on 0 to 100 scale (0 no effect, 100 complete control), approximately 10 days; for Plant response rating, Foxtail, Giant: 0 to 100 scale (0 no effect, 100 complete control)
Outline: as §1

[13] = system: ragweed (common ragweed, Ambrosia artemisiifolia); test: Test A preemergence, ragweed; conditions: Preemergence; for Ragweed plant response rating: 125 g ai/ha, visual injury on 0 to 100 scale (0 no effect, 100 complete control), approximately 10 days; for Plant response rating, Ragweed: 0 to 100 scale (0 no effect, 100 complete control)
Outline: as §1

kochia (Bassia scoparia) [14] = test: Test A preemergence, kochia; conditions: Preemergence; for Kochia plant response rating: 125 g ai/ha, visual injury on 0 to 100 scale (0 no effect, 100 complete control), approximately 10 days; for Plant response rating, Kochia: 0 to 100 scale (0 no effect, 100 complete control)
Outline: as §1

[15] = system: pigweed (Amaranthus retroflexus); test: Test A preemergence, pigweed; conditions: for Pigweed plant response rating: 125 g ai/ha, visual injury on 0 to 100 scale (0 no effect, 100 complete control), approximately 10 days; for Plant response rating, Pigweed: 0 to 100 scale (0 no effect, 100 complete control)
Outline: as §2

[16] = 125 g ai/ha, visual injury approx. 10 days
[17] = 31 g ai/ha, visual injury, approx. 10 days

Cc1cc(C#N)c(C(=O)N2CCCCC2)cc1NS(=O)(=O)C(F)(F)F [Compound 126]
30: Ragweed plant response rating [4] | Blackgrass plant response rating [5] | Kochia plant response rating (kochia (Bassia scoparia) [9]) | Plant response rating, Ragweed ([13]; 500 g ai/ha) | Plant response rating, Kochia (kochia (Bassia scoparia) [14]; 500 g ai/ha)
10: Plant response rating, Kochia (kochia (Bassia scoparia) [9]; [16])
40: Plant response rating, Ryegrass, Italian ([1]; 500 g ai/ha) | Plant response rating, Barnyardgrass ([3]; 500 g ai/ha)
80: Plant response rating, Galium [10, 16]
0: Ryegrass, Italian plant response rating [1] | Plant response rating, Ryegrass, Italian [2, 16] | Ryegrass, Italian plant response rating [2] | Barnyardgrass plant response rating [3] | Plant response rating, Corn (corn (Zea mays); [16]) | Plant response rating, Ragweed [4, 16] | Plant response rating, Wheat [6, 16] | Wheat plant response rating [6] | Plant response rating, Foxtail, Giant [8, 16] | Foxtail, Giant plant response rating [8] | Plant response rating, Barnyardgrass [11, 16] | Barnyardgrass plant response rating [11] | Ragweed plant response rating [13] | Kochia plant response rating (kochia (Bassia scoparia) [14])
100: Plant response rating, Pigweed ([15]; 500 g ai/ha)
90: Pigweed plant response rating [7] | Galium plant response rating [10] | Plant response rating, Foxtail, Giant ([12]; 500 g ai/ha)
70: Plant response rating, Pigweed [7, 16] | Pigweed plant response rating [15]
20: Corn plant response rating (corn (Zea mays)) | Plant response rating, Blackgrass [5, 16] | Foxtail, Giant plant response rating [12]

CSc1cc(-c2cc(NS(=O)(=O)C(F)(F)F)c(C)cc2C)c(=O)n(C)n1 [Compound 36]
20: Plant response rating, Ryegrass, Italian ([2]; 31 g ai/ha) | Plant response rating, Kochia (kochia (Bassia scoparia) [9]; [16]) | Plant response rating, Galium ([10]; 31 g ai/ha) | Plant response rating, Foxtail, Giant [12, 17]
30: Plant response rating, Pigweed [7, 16]
50: Barnyardgrass plant response rating [3] | Plant response rating, Wheat [6, 16]
40: Plant response rating, Galium [10, 16]
80: Foxtail, Giant plant response rating [12]
0: Plant response rating, Ryegrass, Italian [1, 17] | Plant response rating, Barnyardgrass [3, 17] | Plant response rating, Corn (corn (Zea mays); 31 g ai/ha) | Plant response rating, Corn (corn (Zea mays); [16]) | Plant response rating, Ragweed ([4]; 31 g ai/ha) | Plant response rating, Ragweed [4, 16] | Plant response rating, Blackgrass ([5]; 31 g ai/ha) | Plant response rating, Blackgrass [5, 16] | Plant response rating, Wheat ([6]; 31 g ai/ha) | Plant response rating, Pigweed ([7]; 31 g ai/ha) | Plant response rating, Foxtail, Giant ([8]; 31 g ai/ha) | Plant response rating, Foxtail, Giant [8, 16] | Plant response rating, Barnyardgrass ([11]; 31 g ai/ha) | Plant response rating, Barnyardgrass [11, 16] | Plant response rating, Ragweed [13, 17] | Ragweed plant response rating [13] | Plant response rating, Kochia (kochia (Bassia scoparia) [14]; [17]) | Kochia plant response rating (kochia (Bassia scoparia) [14]) | Plant response rating, Pigweed [15, 17]
60: Ryegrass, Italian plant response rating [1]
10: Plant response rating, Ryegrass, Italian [2, 16] | Plant response rating, Kochia (kochia (Bassia scoparia) [9]; 31 g ai/ha) | Pigweed plant response rating [15]

COc1ccnn(-c2cc(NS(=O)(=O)C(F)(F)F)c(C)cc2C)c1=O [Compound 60]
90: Plant response rating, Ryegrass, Italian ([1]; 500 g ai/ha) | Barnyardgrass plant response rating [3] | Plant response rating, Barnyardgrass ([3]; 500 g ai/ha) | Pigweed plant response rating [7] | Foxtail, Giant plant response rating [8] | Plant response rating, Galium [10, 16] | Galium plant response rating [10] | Plant response rating, Foxtail, Giant ([12]; 500 g ai/ha) | Kochia plant response rating (kochia (Bassia scoparia) [14]) | Plant response rating, Kochia (kochia (Bassia scoparia) [14]; 500 g ai/ha)
100: Pigweed plant response rating [15] | Plant response rating, Pigweed ([15]; 500 g ai/ha)
80: Ryegrass, Italian plant response rating [1] | Ryegrass, Italian plant response rating [2] | Plant response rating, Pigweed [7, 16] | Kochia plant response rating (kochia (Bassia scoparia) [9]) | Foxtail, Giant plant response rating [12]
60: Corn plant response rating (corn (Zea mays)) | Plant response rating, Foxtail, Giant [8, 16]
30: Ragweed plant response rating [13]
40: Plant response rating, Blackgrass [5, 16] | Plant response rating, Kochia (kochia (Bassia scoparia) [9]; [16])
50: Plant response rating, Ragweed [4, 16] | Plant response rating, Wheat [6, 16]
10: Plant response rating, Corn (corn (Zea mays); [16])
70: Plant response rating, Ryegrass, Italian [2, 16] | Ragweed plant response rating [4] | Blackgrass plant response rating [5] | Wheat plant response rating [6] | Plant response rating, Barnyardgrass [11, 16] | Barnyardgrass plant response rating [11] | Plant response rating, Ragweed ([13]; 500 g ai/ha)

Cc1ccc(-c2ccnn(C)c2=O)cc1N(S(=O)(=O)C(F)(F)F)S(=O)(=O)C(F)(F)F [Compound 66]
70: Galium plant response rating [10]
30: Foxtail, Giant plant response rating [8] | Barnyardgrass plant response rating [11] | Plant response rating, Pigweed ([15]; 500 g ai/ha)
60: Plant response rating, Foxtail, Giant ([12]; 500 g ai/ha)
40: Wheat plant response rating [6] | Plant response rating, Kochia (kochia (Bassia scoparia) [14]; 500 g ai/ha)
50: Pigweed plant response rating [7] | Plant response rating, Galium [10, 16]
90: Plant response rating, Barnyardgrass ([3]; 500 g ai/ha)
10: Corn plant response rating (corn (Zea mays)) | Kochia plant response rating (kochia (Bassia scoparia) [9]) | Plant response rating, Ragweed ([13]; 500 g ai/ha)
0: Ryegrass, Italian plant response rating [1] | Plant response rating, Ryegrass, Italian ([1]; 500 g ai/ha) | Plant response rating, Ryegrass, Italian [2, 16] | Ryegrass, Italian plant response rating [2] | Barnyardgrass plant response rating [3] | Plant response rating, Corn (corn (Zea mays); [16]) | Plant response rating, Ragweed [4, 16] | Ragweed plant response rating [4] | Plant response rating, Blackgrass [5, 16] | Blackgrass plant response rating [5] | Plant response rating, Wheat [6, 16] | Plant response rating, Pigweed [7, 16] | Plant response rating, Foxtail, Giant [8, 16] | Plant response rating, Kochia (kochia (Bassia scoparia) [9]; [16]) | Plant response rating, Barnyardgrass [11, 16] | Foxtail, Giant plant response rating [12] | Ragweed plant response rating [13] | Kochia plant response rating (kochia (Bassia scoparia) [14]) | Pigweed plant response rating [15]
